Patent US6355799B1, “Substituted benzene compounds, process for their preparation, and herbicidal and defoliant compositions containing them” (ISK Americas Incorporated, priority 1997, dated 2002)

Legend:
Format in all cases: in vivo
[1] = tested on: redroot pigweed (Amaranthus retroflexus, AMARE); experiment: Pre-emerge test, greenhouse herbicide activity screening; conditions: pre-emerge, phytotoxicity rating 0-100 at 14 days after application
Method in brief: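 Compounds in acetone were track-sprayed at 187 l/ha, 15–1000 g ai/ha, onto sandy loam pots. Pre-emerge seeds were sown one day before spraying, with surface watering afterwards. Post-emerge plants were at the 2–3 leaf stage and sprayed with 0.25% v/v non-ionic surfactant. Injury was rated 0–100 at 14 days.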

[2] = tested on: barnyardgrass (Echinochloa crus-galli, ECHCG); experiment: as above; conditions: pre-emerge, phytotoxicity rating 0-100 at 14 days after application
Method in brief: (§1)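 Compounds in acetone were track-sprayed at 15–1000 g ai/ha: pre-emergence onto soil sown the previous day, then top-watered to incorporate and later bottom-watered; post-emergence onto 2–3 leaf plants with 0.25% v/v surfactant, bottom-watered only. Ratings on a 0–100 phytotoxicity scale were taken at day 14.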

[3] = tested on: green foxtail (Setaria viridis, SETVI); experiment: as above; conditions: pre-emerge, phytotoxicity rating 0-100 at 14 days after application
Method in brief: as §1

[4] = tested on: ivyleaf morningglory (Ipomoea hederacea, IPOHE); experiment: as above; conditions: pre-emerge, phytotoxicity rating 0-100 at 14 days after application
Method in brief: as §1

[5] = tested on: johnsongrass (Sorghum halepense, SORHA); experiment: as above; conditions: pre-emerge, phytotoxicity rating 0-100 at 14 days after application
Method in brief: as §1

[6] = tested on: lambsquarters (Chenopodium album, CHEAL); experiment: as above; conditions: pre-emerge, phytotoxicity rating 0-100 at 14 days after application
Method in brief: as §1

[7] = tested on: large crabgrass (Digitaria sanguinalis, DIGSA); experiment: as above; conditions: pre-emerge, phytotoxicity rating 0-100 at 14 days after application
Method in brief: as §1

[8] = tested on: sicklepod (Cassia obtusifolia, CASOB); experiment: as above; conditions: pre-emerge, phytotoxicity rating 0-100 at 14 days after application
Method in brief: as §1

[9] = tested on: velvetleaf (Abutilon theophrasti, ABUTH); experiment: as above; conditions: pre-emerge, phytotoxicity rating 0-100 at 14 days after application
Method in brief: as §1

[10] = tested on: field corn (Zea mays L., var. Dekalb 535, CORN); experiment: Pre-emerge test, crop safety; conditions: crop damage, pre-emerge, phytotoxicity rating 0-100 at 14 days after application
Method in brief: (§2)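 Applied at 15–1000 g ai/ha from acetone in 187 l/ha spray volume. Post-emergence applications included 0.25% v/v non-ionic surfactant and reached plants sown 8–21 days before. Pre-emergence applications were incorporated by surface watering. Efficacy or crop damage was rated on a 0–100 scale after 14 days.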

[11] = tested on: upland rice (Oryza sp., var. Tebonnet, RICE); experiment: Pre-emerge test, crop safety; conditions: crop damage, pre-emerge, phytotoxicity rating 0-100 at 14 days after application
Method in brief: as §2

[12] = tested on: barnyardgrass (Echinochloa crus-galli, ECHCG); experiment: Post-emerge test, greenhouse herbicide activity screening; conditions: post-emerge, phytotoxicity rating 0-100 at 14 days after application
Method in brief: as §2

[13] = tested on: green foxtail (Setaria viridis, SETVI); experiment: as above; conditions: post-emerge, phytotoxicity rating 0-100 at 14 days after application
Method in brief: as §2

[14] = tested on: ivyleaf morningglory (Ipomoea hederacea, IPOHE); experiment: as above; conditions: post-emerge, phytotoxicity rating 0-100 at 14 days after application
Method in brief: as §2

[15] = tested on: johnsongrass (Sorghum halepense, SORHA); experiment: as above; conditions: post-emerge, phytotoxicity rating 0-100 at 14 days after application
Method in brief: as §2

[16] = tested on: lambsquarters (Chenopodium album, CHEAL); experiment: as above; conditions: post-emerge, phytotoxicity rating 0-100 at 14 days after application
Method in brief: as §2

[17] = tested on: large crabgrass (Digitaria sanguinalis, DIGSA); experiment: as above; conditions: post-emerge, phytotoxicity rating 0-100 at 14 days after application
Method in brief: as §2

[18] = tested on: redroot pigweed (Amaranthus retroflexus, AMARE); experiment: as above; conditions: post-emerge, phytotoxicity rating 0-100 at 14 days after application
Method in brief: as §2

[19] = tested on: sicklepod (Cassia obtusifolia, CASOB); experiment: as above; conditions: post-emerge, phytotoxicity rating 0-100 at 14 days after application
Method in brief: as §2

[20] = tested on: velvetleaf (Abutilon theophrasti, ABUTH); experiment: as above; conditions: post-emerge, phytotoxicity rating 0-100 at 14 days after application
Method in brief: as §2

[21] = tested on: field corn (Zea mays L., var. Dekalb 535, CORN); experiment: Post-emerge test, crop safety; conditions: post-emerge, crop damage rating 0-100 at 14 days after application
Method in brief: (§3)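 Rating: 0–100 visual injury, 14 DAA. Application: acetone, 187 l/ha, 15–1000 g ai/ha, flat-fan track sprayer with nozzle 40–45 cm above soil or canopy. Post-emerge runs used 0.25% v/v surfactant on 2–3 leaf plants.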

[22] = tested on: upland rice (Oryza sp., var. Tebonnet, RICE); experiment: Post-emerge test, crop safety; conditions: post-emerge, crop damage rating 0-100 at 14 days after application
Method in brief: as §3

`C#CCOc1c(Cl)cc(F)c(N2C(=O)C3=C(CCCC3)C2=O)c1NC(=O)c1ccc(F)cc1F` [8-13] was tested, and the “Pre-emerge Herbicidal Activity AMARE” value ([1]; rate 63 g ai/ha) was 50, the “Pre-emerge Herbicidal Activity AMARE” value ([1]; rate 125 g ai/ha) was 70 and the “Pre-emerge Herbicidal Activity ECHCG” value ([2]; rate 63 g ai/ha) was 0. The “Pre-emerge Herbicidal Activity ECHCG” value ([2]; rate 125 g ai/ha) was 30, the “Pre-emerge Herbicidal Activity SETVI” value ([3]; rate 63 g ai/ha) was 20 and the “Pre-emerge Herbicidal Activity SETVI” value ([3]; rate 125 g ai/ha) was 40. The “Pre-emerge Herbicidal Activity IPOHE” value ([4]; rate 63 g ai/ha) was 0, the “Pre-emerge Herbicidal Activity IPOHE” value ([4]; rate 125 g ai/ha) was 0 and the “Pre-emerge Herbicidal Activity SORHA” value ([5]; rate 63 g ai/ha) was 0. For the same compound, the “Pre-emerge Herbicidal Activity SORHA” value ([5]; rate 125 g ai/ha) was 30, the “Pre-emerge Herbicidal Activity CHEAL” value ([6]; rate 63 g ai/ha) was 100 and the “Pre-emerge Herbicidal Activity CHEAL” value ([6]; rate 125 g ai/ha) was 70. For the same compound, the “Pre-emerge Herbicidal Activity DIGSA” value ([7]; rate 63 g ai/ha) was 0, the “Pre-emerge Herbicidal Activity DIGSA” value ([7]; rate 125 g ai/ha) was 40 and the “Pre-emerge Herbicidal Activity CASOB” value ([8]; rate 63 g ai/ha) was 0. For the same compound, the “Pre-emerge Herbicidal Activity CASOB” value ([8]; rate 125 g ai/ha) was 0, the “Pre-emerge Herbicidal Activity ABUTH” value ([9]; rate 63 g ai/ha) was 90 and the “Pre-emerge Herbicidal Activity ABUTH” value ([9]; rate 125 g ai/ha) was 100. The “Pre-emerge Herbicidal Activity CORN” value ([10]; rate 63 g ai/ha) was 0, the “Pre-emerge Herbicidal Activity CORN” value ([10]; rate 125 g ai/ha) was 0 and the “Pre-emerge Herbicidal Activity RICE” value ([11]; rate 63 g ai/ha) was 10. For the same compound, the “Pre-emerge Herbicidal Activity RICE” value ([11]; rate 125 g ai/ha) was 10, the “Post-emerge Herbicidal Activity ECHCG” value ([12]; 63 g ai/ha) was 20 and the “Post-emerge Herbicidal Activity ECHCG” value ([12]; 125 g ai/ha) was 40. The “Post-emerge Herbicidal Activity SETVI” value ([13]; 63 g ai/ha) was 30, the “Post-emerge Herbicidal Activity SETVI” value ([13]; 125 g ai/ha) was 30 and the “Post-emerge Herbicidal Activity IPOHE” value ([14]; 63 g ai/ha) was 50. For the same compound, the “Post-emerge Herbicidal Activity IPOHE” value ([14]; 125 g ai/ha) was 60, the “Post-emerge Herbicidal Activity SORHA” value ([15]; 63 g ai/ha) was 10 and the “Post-emerge Herbicidal Activity SORHA” value ([15]; 125 g ai/ha) was 20. The “Post-emerge Herbicidal Activity CHEAL” value ([16]; 63 g ai/ha) was 90, the “Post-emerge Herbicidal Activity CHEAL” value ([16]; 125 g ai/ha) was 90 and the “Post-emerge Herbicidal Activity DIGSA” value ([17]; 63 g ai/ha) was 20. The “Post-emerge Herbicidal Activity DIGSA” value ([17]; 125 g ai/ha) was 10, the “Post-emerge Herbicidal Activity AMARE” value ([18]; 63 g ai/ha) was 100 and the “Post-emerge Herbicidal Activity AMARE” value ([18]; 125 g ai/ha) was 100. The “Post-emerge Herbicidal Activity CASOB” value ([19]; 63 g ai/ha) was 30, the “Post-emerge Herbicidal Activity CASOB” value ([19]; 125 g ai/ha) was 50 and the “Post-emerge Herbicidal Activity ABUTH” value ([20]; 63 g ai/ha) was 100. For the same compound, the “Post-emerge Herbicidal Activity ABUTH” value ([20]; 125 g ai/ha) was 100, the “Post-emerge Herbicidal Activity CORN” value ([21]; 63 g ai/ha) was 10 and the “Post-emerge Herbicidal Activity CORN” value ([21]; 125 g ai/ha) was 40. For the same compound, the “Post-emerge Herbicidal Activity RICE” value ([22]; 63 g ai/ha) was 30 and the “Post-emerge Herbicidal Activity RICE” value ([22]; 125 g ai/ha) was 70.
